The test system of assay [1] is p53 signaling (p53RE-bla HCT-116 cells).
Assay [2] shares this test system. Put plainly: cells. It is filed as cell-based.
For assay [3] the test system is unchanged. The source holds these as a separate data set.
The mark [4] stands for this setting: read-out: p53 activation EC50, cherry pick confirmation.
Where [5] appears, read: read-out: p53 activation EC50, primary screening.
[6] abbreviates: read-out: Viability EC50, cherry pick confirmation.

The text below walks through data of publication PMC9151520 (Archives of Toxicology, 2022).

Several values for one entry are separate records, joined by “and”; a condition that tells them apart may be missing. Equal values may be shown once. Read-outs that look alike come from different tables or passages of the source.

For the molecule `O=C(O)Cc1cc(I)c(Oc2ccc(O)c(I)c2)c(I)c1` [Tiratricol], the “p53 activation EC50” value in assay [1] and in assay [3] was “inactive” in each case. In addition, the p53 activation efficacy entry is “inactive” in assay [1]; 79.5057 and 58.391 in assay [2]; “inactive” in assay [3]. Moreover, the EC50 worked out at 16.5 µM in assay [2] (Homo sapiens, HCT-116, read-out: p53 activation EC50) and 10.7 µM in assay [2] (read-out: p53 activation EC50). In addition, the “Viability EC50” value in the assay with p53RE-bla HCT-116 cells is “inactive”. The Viability efficacy entry in the assay on p53RE-bla HCT-116 cells was “inactive”.

Regarding `CC(=O)[O][Sn]([c]1ccccc1)([c]1ccccc1)[c]1ccccc1` [Triphenyltin acetate], the “p53 activation EC50, cherry pick confirmation” value in assay [1] and in assay [3] was “inactive” each time. For the same molecule, the “p53 activation EC50, primary screening” value in assay [1] and in assay [3] was “inactive” each time. Moreover, the figures for the “p53 activation efficacy, cherry pick confirmation” value in assay [1], in assay [2] and in assay [3] were “inactive”, 67.021 and “inactive”, respectively. For the same molecule, the “p53 activation efficacy, primary screening” value in assay [1] is “inactive”; in assay [2], 86.4573; in assay [3], “inactive”. The 50% effective concentration (EC50) is 14.4 µM in assay [2] (setting [4]); 22 µM in assay [2] (setting [5]); 5.01 µM and 5.33 µM and 6.71 µM in the assay on p53RE-bla HCT-116 cells (setting [6]); 5.39 µM and 7.79 µM and 6.43 µM in the assay with p53RE-bla HCT-116 cells (read-out: Viability EC50, primary screening).

Regarding `[F][Sn]([c]1ccccc1)([c]1ccccc1)[c]1ccccc1` [Triphenyltin fluoride], the “p53 activation EC50, cherry pick confirmation” value in assay [1] and in assay [3] was “inactive” in each case. For the same molecule, the “p53 activation EC50, primary screening” value in assay [1] and in assay [3] was “inactive” each time. In addition, the “p53 activation efficacy, cherry pick confirmation” value was “inactive” in assay [1], 73.0027 in assay [2] and “inactive” in assay [3]. The “p53 activation efficacy, primary screening” value is “inactive” in assay [1], 39.9627 in assay [2] and “inactive” in assay [3]. The EC50 in assay [2] (setting [4]) is 17.8 µM; in assay [2] (setting [5]), 7.69 µM; in the assay with p53RE-bla HCT-116 cells (setting [6]) it was 3.63 µM and 5.54 µM and 3.92 µM.

In the case of `O=c1n(CC2CO2)c(=O)n(CC2CO2)c(=O)n1CC1CO1` (stereo not shown) [Tris(2,3-epoxypropyl)isocyanurate], in assay [1], the “p53 activation EC50, cherry pick confirmation” value is “inactive”; the “p53 activation EC50, primary screening” value was “inactive”; the “p53 activation efficacy, cherry pick confirmation” value was “inactive”; the “p53 activation efficacy, primary screening” value is “inactive”. For the same molecule, in assay [2], the “p53 activation efficacy, cherry pick confirmation” value was found to be 90.7567 and the “p53 activation efficacy, primary screening” value is 99.0367. In addition, the EC50 in assay [2] (setting [4]) was 27.9 µM. Besides, in assay [2] (setting [5]), the EC50 is 23.7 µM. Also, in assay [3], the “p53 activation EC50, cherry pick confirmation” value is “inactive”; the “p53 activation EC50, primary screening” value was “inactive”; the “p53 activation efficacy, cherry pick confirmation” value was “inactive”; the “p53 activation efficacy, primary screening” value was “inactive”. In the assay with p53RE-bla HCT-116 cells, the “Viability EC50, cherry pick confirmation” value is “inactive”; the “Viability EC50, primary screening” value is “inactive”; the “Viability efficacy, cherry pick confirmation” value was “inactive”; the “Viability efficacy, primary screening” value is “inactive”.

By EC50 is commonly meant the concentration needed to bring the measured effect to its halfway point.
